Read-outs that look alike come from different tables or passages of the source.
Legend:
MAPK p38 = MAPK p38 Activation Assay in Panc-1 (western blot); assay type: cell-based, Human; design: key: Y = yes; N = No; settings: at 10 μM
Experimental: Cell lines: Human tumor-derived pancreatic cancer cell line Panc-1 and mouse muscle myoblast C2C12 were purchased from American Type Culture Collection and grown in complete DMEM-High Glucose, supplemented with penicillin (100 U/mL), streptomycin (100 μg/mL), and 10% heat-inactivated FBS at 37° C. in a humidified incubator with 5% CO2.
Method: Cells were plated at 350000 cells/well density in a 12-well plate, allowed 3 hours to adhere to the plate, then starved in the appropriate medium in the presence of 0.5% FBS overnight. The small molecules to be tested were added to the cells in the final concentration of 10 μM in the presence of 0.3% DMSO for 3 hours incubation at 37° C. For IC50 value determination, serial dilutions of compounds were added to cells under the same conditions. Next, Panc-1 cells were stimulated with 10 ng/ml TGF-b1 for 1 hour, and C2C12 cells were stimulated with 10 ng/ml TGF-b1 for 20 minutes (recombinant human TGF-b1, R&D Systems). After stimulation cells were lysed with lysis buffer containing 1% Triton X-100, EDTA, and Halt™ Protease & Phosphatase Inhibitor Cocktail (Thermo Scientific). Protein concentration was assessed by BCA protein assay (Thermo Scientific). Phosphorylation level of MAPK p38 was determined by western blot.
Western blot protocol: Equal amounts of protein (15-50 μg) were separated by SDS-PAGE and transferred to nitrocellulose membranes (Invitrogen by Thermo Fisher Scientific). The membrane was stained with Ponceau S Stain (Boston BioProducts) to verify uniform protein loading. Membranes were blocked with 10% milk and phosphorylation levels of Smad2/Smad3 were assessed by incubating overnight at 4° C. with the following antibody: Phospho-p38 MAPK (Thr180/Tyr182), from Cell Signaling Technology. Then the membranes were incubated with HRP-conjugated secondary antibody (Jackson Immunoresearch, West Grove, PA). Bands were incubated in Amersham ECL Prime Western Blotting Detection Reagent (GE Healthcare) and visualized using the ChemiDoc MP imaging system (Bio-Rad).

KRas G12D mutant = KRas G12D mutant (Homo sapiens (Human), UniProt P01116, G12D); assay: Ras GTP Binding Domain Inhibition Assay, KRas G12D mutant; settings: for inhibition at 20 µM: Table 7; for KRas G12D mutant + SOS: % inh. / KRas G12D mutant: % inh.: 20 uM, Table 8
Experimental: (§1) A Ras Superfamily Activity Assay (as disclosed in International Application No. PCT/US2018/038613, filed Jun. 20, 2018, which is incorporated by reference in its entirety) was used as a specific assay to evaluate compounds against the following for the following Ras Superfamily proteins: KRas wild type, KRas Q61H mutant, KRas G12C mutant, KRas G12D mutant, Rac-1, and Rho-A.
(§2) Buffer-I: • 25 mM Tris-HCl, pH 7.4 • 27 mM KCl • 137 mM NaCl • 1 mM MgCl2 • 1 mM DTT
(§3) Buffer-II: • 50 mM Tris-HCl, pH 7.0 • 1 mM MgCl2 • 1 mM DTT
(§4) The small GTPases proteins: KRas wild type. KRas Q61H mutant, KRas G12C mutant, KRas G12D mutants, Rac-1, and Rho-A were expressed as His-tagged proteins. In addition, the Guanosine nucleotide Exchange Factor (GEF) Sos protein (residues 556-1049) was expressed as a His-tagged protein. In cells, the guanine nucleotide exchange factor Sos protein promotes activation of Ras proteins by stimulating an exchange of GDP for GTP. The inclusion of Sos to the Ras GTP binding domain inhibition assay may be considered as an alternative representation of physiological cellular conditions for evaluating the inhibitory activity of some of the tested small molecules.
(§5) For the assay, all purified small GTPases proteins were diluted in Buffer-I or Buffer-II to a final concentration of 10-30 μg/mL. 200 μL of each diluted protein was added to a nickel-coated 96-well plate and incubated overnight at 4° C. Then the protein solution was discarded and 200 μL of Buffer-I or Buffer-II was added to each well in the presence of 1% DMSO. Compounds to be tested were added to the protein-coated wells at final concentration of 20 μM, and incubated for 3 hours at room temperature with and without 10-30 μg/mL of Sos added to the final hour of the incubation. When performing IC50 measurements a serial dilution of all tested concentrations was added. Then Cy3-GTP or Cy5-GTP was added to each well to a final concentration of 100 nM. The labeled GTP was incubated for 45 minutes at room temperature. Following GTP incubation, wells were washed 3× in Buffer-I or Buffer-II and 200 μL of Buffer-I or Buffer-II was added to each well. Following washes, the amount of bound labeled-GTP was measured using a SpectraMax M3 (Molecular Devices).

KRas G12C mutant = KRas G12C mutant (Homo sapiens (Human), UniProt P01116, G12C); assay: Ras GTP Binding Domain Inhibition Assay, KRas G12C mutant
Experimental: as §1, §2, §3, §4, §5

Rho-A = Rho-A (Homo sapiens (Human), UniProt P61586); assay: Ras GTP Binding Domain Inhibition Assay, Rho-A
Experimental: as §1, §2, §3, §4, §5

[1] = + SOS, read-out: KRas G12D mutant + SOS: % inh.
[2] = without SOS, read-out: KRas G12D mutant: % inh.
[3] = + SOS, read-out: KRas G12C mutant + SOS: % inh.
[4] = without SOS, read-out: KRas G12C mutant: % inh.
[5] = + SOS, read-out: Rho-A + SOS: % inh.
[6] = without SOS, read-out: Rho-A: % inh.

Sequence of KRas G12C mutant (P01116 other isoform, or with tags, fused parts or gaps G12C): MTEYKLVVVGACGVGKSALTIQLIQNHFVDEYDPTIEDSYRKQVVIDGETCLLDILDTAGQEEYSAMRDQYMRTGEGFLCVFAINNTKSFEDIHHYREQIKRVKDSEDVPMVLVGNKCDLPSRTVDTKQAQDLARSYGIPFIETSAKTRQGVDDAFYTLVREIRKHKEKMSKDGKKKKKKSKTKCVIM
Sequence of KRas G12D mutant (P01116 other isoform, or with tags, fused parts or gaps G12D): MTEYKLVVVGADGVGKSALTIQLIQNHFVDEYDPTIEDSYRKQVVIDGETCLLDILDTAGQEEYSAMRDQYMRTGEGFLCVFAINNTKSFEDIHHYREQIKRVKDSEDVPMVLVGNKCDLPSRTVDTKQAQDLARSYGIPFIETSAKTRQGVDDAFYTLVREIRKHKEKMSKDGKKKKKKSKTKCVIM
Sequence of Rho-A (P61586 whole entry, species assumed, the tested form may be a part): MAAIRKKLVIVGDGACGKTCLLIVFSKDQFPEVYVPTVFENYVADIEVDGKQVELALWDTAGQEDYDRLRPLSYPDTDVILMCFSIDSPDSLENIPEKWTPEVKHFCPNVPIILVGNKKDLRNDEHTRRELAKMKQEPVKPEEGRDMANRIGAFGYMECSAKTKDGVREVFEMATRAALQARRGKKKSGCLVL

| inhibition at 20 µM (KRas G12D mutant; [1]) | KRas G12D mutant + SOS: % inh. (KRas G12D mutant; + SOS) | inhibition at 20 µM (KRas G12D mutant; [2]) | KRas G12D mutant: % inh. (KRas G12D mutant; without SOS) | inhibition at 20 µM (KRas G12C mutant; [3]) | inhibition at 20 µM (KRas G12C mutant; [4]) | inhibition at 20 µM (Rho-A; [5]) | inhibition at 20 µM (Rho-A; [6]) | Structure (SMILES) | Activation of MAPK p38 in PANC-1 (MAPK p38) |
| --- | --- | --- | --- | --- | --- | --- | --- | --- | --- |
| 46 to 75% | C (C = 46-75% inhibition) | 1 to 25% | A (A = 1-25% inhibition) | 76 to 100% | 26 to 45% | 76 to 100% | 46 to 75% | CO[C@H]1CC[C@@H](Nc2nc(-c3nccn3C)nc3sc(-c4ccn(C)n4)c(-c4ccccc4)c23)C1 (racemic) [Compound 5, rac-N-((1R,3S)-3-Methoxycyclopentyl)-2-(1-methyl-1H-imidazol-2-yl)-6-(1-methyl-1H-pyrazol-3-yl)-5-phenylthieno[2,3-d]pyrimidin-4-amine] | Y |
| 46 to 75% | C (C = 46-75% inhibition) | 76 to 100% | D (D = 76-100% inhibition) | 46 to 75% | 76 to 100% | 76 to 100% | 76 to 100% | COc1cccc(-c2sc3nc(-c4nccn4C)nc(NC4CCC(OC)C4)c3c2C)c1F (racemic) [Compound 10, rac-6-(2-Fluoro-3-methoxyphenyl)-N-((1R,3S)-3-methoxycyclopentyl)-5-methyl-2-(1-methyl-1H-imidazol-2-yl)thieno[2,3-d]pyrimidin-4-amine and rac-6-(2-Fluoro-3-methoxyphenyl)-N-((1R,3R)-3-methoxycyclopentyl)-5-methyl-2-(1-methyl-1H-imidazol-2-yl)thieno[2,3-d]pyrimidin-4-amine] | Y |
| 46 to 75% | C (C = 46-75% inhibition) | 46 to 75% | C (C = 46-75% inhibition) | 76 to 100% | 46 to 75% | 76 to 100% | 76 to 100% | CO[C@H]1CC[C@@H](Nc2nc(-c3nccn3C)nc3sc(-c4ccn(C(C)C)n4)c(C)c23)C1 (racemic) [Compound 12, rac-6-(1-Isopropyl-1H-pyrazol-3-yl)-N-((1R,3S)-3-methoxycyclopentyl)-5-methyl-2-(1-methyl-1H-imidazol-2-yl)thieno[2,3-d]pyrimidin-4-amine] | Y |
| – | – | – | – | 76 to 100% | 26 to 45% | – | 26 to 45% | COC1CCCN(c2nc(-c3nccn3C)nc3sc(-c4ccn(C(C)C)n4)c(C)c23)C1 (racemic) [Compound 14, rac-6-(1-Isopropyl-1H-pyrazol-3-yl)-4-(3-methoxypiperidin-1-yl)-5-methyl-2-(1-methyl-1H-imidazol-2-yl)thieno[2,3-d]pyrimidine] | Y |
| 76 to 100% | D (D = 76-100% inhibition) | 76 to 100% | D (D = 76-100% inhibition) | 76 to 100% | 46 to 75% | – | 76 to 100% | COCC1CN(c2nc(-c3nccn3C)nc3sc(-c4ccn(C(C)C)n4)c(C)c23)CCO1 (racemic) [Compound 15, 4-(6-(1-Isopropyl-1H-pyrazol-3-yl)-5-methyl-2-(1-methyl-1H-imidazol-2-yl)thieno[2,3-d]pyrimidin-4-yl)-2-(methoxymethyl)morpholine] | Y |
| 76 to 100% | D (D = 76-100% inhibition) | 76 to 100% | D (D = 76-100% inhibition) | 76 to 100% | 76 to 100% | – | 46 to 75% | COCCO[C@H]1CC[C@@H](Nc2nc(-c3nccn3C)nc3sc(-c4ccn(C(C)C)n4)c(C)c23)C1 (racemic) [Compound 20, rac-6-(1-Isopropyl-1H-pyrazol-3-yl)-N-((1R,3S)-3-(2-methoxyethoxy)cyclopentyl)-5-methyl-2-(1-methyl-1H-imidazol-2-yl)thieno[2,3-d]pyrimidin-4-amine] | Y |
| 76 to 100% | D (D = 76-100% inhibition) | 46 to 75% | C (C = 46-75% inhibition) | 76 to 100% | 46 to 75% | – | 46 to 75% | Cc1c(-c2ccn(C(C)C)n2)sc2nc(-c3nccn3C)nc(NCC3COCCN3C)c12 (racemic) [Compound 24, rac-6-(1-Isopropyl-1H-pyrazol-3-yl)-5-methyl-2-(1-methyl-1H-imidazol-2-yl)-N-((4-methylmorpholin-3-yl)methyl)thieno[2,3-d]pyrimidin-4-amine] | Y |
| 76 to 100% | D (D = 76-100% inhibition) | 76 to 100% | D (D = 76-100% inhibition) | 76 to 100% | 76 to 100% | – | 76 to 100% | Cc1c(-c2ccn(C(C)C)n2)sc2nc(-c3nccn3C)nc(NCC3CN(C)CCO3)c12 (racemic) [Compound 25, rac-6-(1-Isopropyl-1H-pyrazol-3-yl)-5-methyl-2-(1-methyl-1H-imidazol-2-yl)-N-((4-methylmorpholin-2-yl)methyl)thieno[2,3-d]pyrimidin-4-amine] | Y |
| 46 to 75% | C (C = 46-75% inhibition) | 76 to 100% | D (D = 76-100% inhibition) | 76 to 100% | 76 to 100% | – | 76 to 100% | Cc1c(-c2ccn(C(C)C)n2)sc2nc(-c3nccn3C)nc(NCC3CCCO3)c12 (racemic) [Compound 26, rac-6-(1-Isopropyl-1H-pyrazol-3-yl)-5-methyl-2-(1-methyl-1H-imidazol-2-yl)-N-((tetrahydrofuran-2-yl)methyl)thieno[2,3-d]pyrimidin-4-amine] | Y |
| 76 to 100% | D (D = 76-100% inhibition) | 46 to 75% | C (C = 46-75% inhibition) | 76 to 100% | 76 to 100% | – | 46 to 75% | COCC1(OC)CCN(c2nc(-c3nccn3C)nc3sc(-c4ccn(C(C)C)n4)c(C)c23)C1 (racemic) [Compound 27, rac-6-(1-Isopropyl-1H-pyrazol-3-yl)-4-(3-methoxy-3-(methoxymethyl)pyrrolidin-1-yl)-5-methyl-2-(1-methyl-1H-imidazol-2-yl)thieno[2,3-d]pyrimidine] | Y |

From patent publication US20240124483A1, “Methods for the Treatment of Fibrotic Disease” (SHY Therapeutics, LLC, priority 2021, published 2024)
